Values joined by “and” are separate entries in the source; they are usually repeats but may differ in a detail not shown here. Equal entries are not always repeated.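 Assay format: 96-well plates, 48-hour exposure. At the GI50, growth is halved. The concentration for full growth arrest is given as TGI.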 Where a SMILES comes first, the peptide text is derived from it. [ ]: non-standard residue; d: D form. pGlu = O=C1CC[CH](C(=O)O)N1
Tests used:
Assay in all cases: NCI anticancer screen, dose series, 48 h
[1] = tested on: OVCAR-5 ovarian
[2] = tested on: A498 renal
[3] = tested on: HT29 colon
[4] = tested on: CCRF-CEM leukemia
[5] = tested on: HOP-62 NSCLC
[6] = tested on: SW-620 colon
[7] = tested on: OVCAR-3 ovarian
[8] = tested on: HCT-116 colon
[9] = tested on: A549 NSCLC
[10] = tested on: SR leukemia

Compound | TGI [1] | TGI [2] | TGI [3] | TGI [4] | TGI [5] [µM] | TGI [6] | TGI [7] | TGI [8] | TGI [9] | TGI [10] [µM] | GI50 [1] [µM] | GI50 [2] [µM] | GI50 [3] [µM] | GI50 [6] [µM] | GI50 [7] [µM] | GI50 [8] [µM] | GI50 [9] [µM] | GI50 [5] [µM]
CCOC(=O)c1nc2cc(C(F)(F)F)ccc2nc1Nc1ccc(F)cc1 | > 100 µM | > 100 µM | > 100 µM | 66.2 µM | > 100 | > 100 µM | > 100 µM | > 100 µM | > 100 µM | – | – | – | – | – | – | – | – | –
CCOC(=O)C1C[C@H]2CO[C@H](c3ccccc3)N2C1=O (stereo partly specified) | > 100 µM | – | > 100 µM | > 100 µM | – | > 100 µM | > 100 µM | > 100 µM | > 100 µM | > 100 | – | – | – | – | – | – | – | –
C=CCCC(On1c(-c2ccc(Cl)cc2)csc1=S)c1ccccc1 (stereo unspecified) | > 100 µM | > 100 µM | > 100 µM | > 100 µM | > 100 | > 100 µM | > 100 µM | > 100 µM | > 100 µM | – | – | – | – | – | – | – | – | –
CC1(C)OCC(COC(=O)NCn2cc(-c3ccccc3)nn2)O1 (stereo unspecified) | > 100 µM | – | > 100 µM | > 100 µM | > 100 | > 100 µM | – | > 100 µM | > 100 µM | > 100 | – | – | – | – | – | – | – | –
C=C1C(=O)O[C@@H]2OC3(C)CCC4C(C)CCC1C42OO3 (stereo partly specified) | 39.7 µM and 29.3 µM | 6.56 µM and 10.6 µM | 11.2 µM and 6.73 µM | 2.35 µM and 5.26 µM | 36.7 | 13.6 µM and 10.8 µM | 19.6 µM and 10 µM | 10.2 µM and 3.52 µM | 23.1 µM and 18.7 µM | – | 24.5 | 2.57 | 3.21 | 3.44 | 7.42 | 2.47 | 7.23 | –
CC(NC(=O)C(Cc1cnc[nH]1)NC(=O)C1CCC(=O)N1)C(N)=O (stereo not drawn) ([pGlu]-His-Ala-NH2; configuration not given here) | > 100 µM | – | > 100 µM | > 100 µM | > 100 | > 100 µM | > 100 µM | > 100 µM | > 100 µM | > 100 | – | – | – | – | – | – | – | –
COc1ccc(N=N/C(=N/NC(=O)c2cc(Cl)ccc2C(=O)c2ccccc2)c2ccc(N(CCC#N)CCC#N)cc2C)cc1 | 70 µM | – | 60.8 µM | 19.8 µM | 81.2 | > 100 µM | 27.9 µM | 33.5 µM | > 100 µM | – | – | – | – | – | – | – | – | –
CC(C)(C)c1cc(/C=C/C(=O)CC(=O)/C=C/c2cc(C(C)(C)C)c(O)c(C(C)(C)C)c2)cc(C(C)(C)C)c1O | > 50 µM | – | > 50 µM | > 50 µM | > 50 | > 50 µM | > 50 µM | > 50 µM | > 50 µM | – | – | – | – | – | – | – | – | –
CC1CC(=O)Nc2ccc(N=NN(C)C)cc2N1C=O (stereo unspecified) | > 100 µM | – | > 100 µM | > 100 µM | > 100 | > 100 µM | > 100 µM | > 100 µM | > 100 µM | – | – | – | – | – | – | – | – | –
O=C1OC(c2ccc(Cl)cc2)(c2ccc(Cl)cc2)c2c1ccc1ccccc21 | > 100 µM | > 100 µM | > 100 µM | > 100 µM | – | > 100 µM | > 100 µM | – | > 100 µM | – | – | – | – | – | – | – | – | –
COc1nc2ccc(CNc3ccc(C(=O)O)cc3)cc2nc1OC | > 10 µM | > 10 µM | > 10 µM | > 10 µM | > 10 | > 10 µM | > 10 µM | > 10 µM | > 10 µM | – | – | – | – | – | – | – | – | –
COc1cc([C@@H]2c3cc4c(cc3[C@@H](N=Cc3ccc(C(=O)O[C@@H](C(=O)O[C@H]5C[C@@]6(O)[C@@H](OC(=O)c7ccccc7)[C@@H]7[C@]8(OC(C)=O)CO[C@@H]8C[C@H](O)[C@@]7(C)C(=O)[C@H](OC(C)=O)C(=C5C)C6(C)C)[C@@H](NC(=O)c5ccccc5)c5ccccc5)cc3)[C@H]3COC(=O)[C@H]23)OCO4)cc(OC)c1O | – | 26.2 µM | 1.92 µM | – | > 50 | > 50 µM | 0.164 µM | > 50 µM | > 50 µM | – | – | – | – | – | – | – | – | –
CCC/C(Cl)=N\OC(=O)Nc1ccc(F)c([N+](=O)[O-])c1 | 44.4 µM | 48.4 µM | 45.3 µM | > 100 µM | 34.9 | 39.6 µM | 28.9 µM | > 100 µM | 66.4 µM | – | – | – | – | – | – | – | – | –
COc1cc(/C=C2\N=C(C)N(n3c(-c4ccccc4)nc4ccccc4c3=O)C2=O)cc(OC)c1OC | – | > 100 µM | > 100 µM | > 100 µM | > 100 | > 100 µM | – | > 100 µM | > 100 µM | > 100 | – | – | – | – | – | – | – | –
O=S(=O)(O)c1cc(Nc2ccnc3ccccc23)c2c(S(=O)(=O)O)cc(S(=O)(=O)O)cc2c1 | > 100 µM | > 100 µM | > 100 µM | > 100 µM | > 100 | > 100 µM | > 100 µM | > 100 µM | > 100 µM | – | – | – | – | – | – | – | – | –
COc1ccc(/C(Cl)=C(\C=O)c2ccccc2)cc1OC | > 100 µM | – | > 100 µM | > 100 µM | 81.8 | > 100 µM | > 100 µM | > 100 µM | > 100 µM | > 100 | – | – | – | – | – | – | – | –

Compound | TGI [1] | TGI [2] | TGI [3] | TGI [4] | TGI [5] [µM] | TGI [6] | TGI [7] | TGI [8] | TGI [9] | TGI [10] [µM] | GI50 [1] [µM] | GI50 [2] [µM] | GI50 [3] [µM] | GI50 [6] [µM] | GI50 [7] [µM] | GI50 [8] [µM] | GI50 [9] [µM] | GI50 [5] [µM]
C=CC[N+](CCO)(CCO)CCCCCCCCCCCCCCCCCC | 31.5 µM | 42.5 µM | 12 µM | 3.76 µM | 27.3 | 22.2 µM | 27.1 µM | 14.7 µM | 35 µM | – | – | – | – | – | – | – | – | –
Cn1cc(-c2nc(-c3c[nH]c4ccncc34)cs2)c2cc(F)ccc21 | 3.11 µM | 3.43 µM | 2.93 µM | – | 3.3 | 3.4 µM | 3.69 µM | 3.28 µM | 3.57 µM | – | 1.68 | 1.8 | 1.44 | 1.65 | 1.94 | 1.63 | 1.85 | 1.73
O=C(O)CN(CC(=O)O)Cc1ccn(-c2cccc(-n3ccc(CN(CC(=O)O)CC(=O)O)n3)n2)n1 | > 100 µM | – | > 100 µM | – | > 100 | > 100 µM | > 100 µM | > 100 µM | > 100 µM | > 100 | – | – | – | – | – | – | – | –
O=C(NN1C(=O)CSC1c1ccco1)c1ccncc1 (stereo unspecified) | > 100 µM | > 100 µM | > 100 µM | > 100 µM | > 100 | > 100 µM | > 100 µM | > 100 µM | > 100 µM | – | – | – | – | – | – | – | – | –
CCCCCCCC(=O)OCC(C[As](=O)(O)O)OC(=O)CCCCCCC (stereo unspecified) | – | 33.2 µM | 33.4 µM | 28 µM | 34.5 | 29.1 µM | – | 30.3 µM | 53.3 µM | 60.8 | – | – | – | – | – | – | – | –
CNC(=O)c1ccccc1[S+]1c2cccc3cccc(c23)C(=O)N1C (stereo unspecified) | > 100 µM | > 100 µM | > 100 µM | > 100 µM | > 100 | > 100 µM | > 100 µM | > 100 µM | > 100 µM | – | – | – | – | – | – | – | – | –
C[C@H](N)C(=O)N[C@@H]1[C@H]2C(=C(O)C[C@@H](O)[C@@H]2O)C(=O)O[C@@H]1C | > 100 µM | > 100 µM | > 100 µM | > 100 µM | > 100 | > 100 µM | > 100 µM | > 100 µM | > 100 µM | – | – | – | – | – | – | – | – | –
Cc1c(O)c(=O)ccn1CCc1c[nH]c2ccccc12 | > 100 µM | – | 32.7 µM | – | > 100 | > 100 µM | – | > 100 µM | > 100 µM | 49.2 | – | – | – | – | – | – | – | –
CC(C)=CCCC1(Sc2ccccc2)C(=O)OCC1C=C(C)C (stereo unspecified) | 59 µM | > 100 µM | – | > 100 µM | > 100 | > 100 µM | 42.8 µM | 45.8 µM | 78.1 µM | – | – | – | – | – | – | – | – | –
COC(=O)c1c(O)ccc2c1c1c(n2Cc2ccccc2OC)C(=O)c2ccccc2C1 | – | > 100 µM | > 100 µM | 81.2 µM | > 100 | > 100 µM | > 100 µM | > 100 µM | > 100 µM | > 100 | – | – | – | – | – | – | – | –
Cc1cc(C)c2c(=N)c3ccccc3n(CCCCCCn3c4ccccc4c(=N)c4c(C)cc(C)nc43)c2n1 | 3.49 µM | 3.12 µM | 1.68 µM | 0.565 µM | 1.44 | 0.34 µM | 3.09 µM | 0.353 µM | 3.03 µM | – | – | – | – | – | – | – | – | –
COc1cc(/C=c2/c3ccccc3n3c2cc(-c2ccccc2)[n+]3C)cc(OC)c1OC | 21.4 µM | > 58.3 µM | 11.4 µM | > 28.9 µM | 19.5 | 14.5 µM | 6.82 µM | 6.96 µM | > 100 µM | – | – | – | – | – | – | – | – | –
CCOC(=O)C1=CC(C)(C(=O)OCC)Nc2c(nc(SC)n(C)c2=O)N1 (stereo unspecified) | > 10 µM | > 10 µM | > 10 µM | > 10 µM | > 10 | > 10 µM | > 10 µM | > 10 µM | > 10 µM | – | – | – | – | – | – | – | – | –
COc1ccc(/C=N\NC(=O)Nc2cccc3ccccc23)cc1 | > 100 µM | 51.6 µM | > 100 µM | > 100 µM | 26.5 | > 100 µM | – | > 100 µM | > 100 µM | – | – | – | – | – | – | – | – | –
COc1ccc(/C=N/n2cnc3c(c2=O)S/C(=C2/SC(=S)N(c4ccc(C)cc4)C2=O)N3c2ccccc2)cc1 | > 100 µM | – | > 100 µM | > 100 µM | 70.9 | > 100 µM | 74.2 µM | > 100 µM | > 100 µM | > 100 | – | – | – | – | – | – | – | –
N/C(=N\N=C\c1cc2c(cc1Cl)OCO2)NO | > 61.5 µM | > 100 µM | > 100 µM | > 100 µM | > 100 | > 100 µM | > 24.6 µM | > 100 µM | > 100 µM | – | – | – | – | – | – | – | – | –
